Measurements taken from PubChem BioAssay (NCI).
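Dose response: 5 concentrations. Exposure: 48 h. Format: 96-well plates. Endpoint: linear interpolation; highest concentration if not reached. The concentration for full growth arrest is given as TGI.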

How the values were obtained:
Test in all cases: inhibition of tumour cell growth, NCI panel, 48 h
786-0 renal = system: 786-0 renal
A549 NSCLC = system: A549 NSCLC
ACHN renal = system: ACHN renal
BT-549 breast = system: BT-549 breast
CCRF-CEM leukemia = system: CCRF-CEM leukemia
COLO 205 colon = system: COLO 205 colon
DU-145 prostate = system: DU-145 prostate
HCC-2998 colon = system: HCC-2998 colon
HCT-116 colon = system: HCT-116 colon
HCT-15 colon = system: HCT-15 colon
HL-60(TB) leukemia = system: HL-60(TB) leukemia
HOP-62 NSCLC = system: HOP-62 NSCLC
HOP-92 NSCLC = system: HOP-92 NSCLC
HS 578T breast = system: HS 578T breast
HT29 colon = system: HT29 colon
IGROV1 ovarian = system: IGROV1 ovarian
K-562 leukemia = system: K-562 leukemia
KM12 colon = system: KM12 colon
LOX IMVI melanoma = system: LOX IMVI melanoma
M14 melanoma = system: M14 melanoma
MALME-3M melanoma = system: MALME-3M melanoma
MCF7 breast = system: MCF7 breast
MDA-MB-231 breast = system: MDA-MB-231 breast
MDA-MB-435 = system: MDA-MB-435
MDA-N = system: MDA-N
MOLT-4 leukemia = system: MOLT-4 leukemia
NCI-H226 lung = system: NCI-H226 lung
NCI-H23 lung = system: NCI-H23 lung
NCI-H460 lung = system: NCI-H460 lung
NCI-H522 lung = system: NCI-H522 lung
OVCAR-3 ovarian = system: OVCAR-3 ovarian
OVCAR-4 ovarian = system: OVCAR-4 ovarian
OVCAR-8 ovarian = system: OVCAR-8 ovarian
RPMI-8226 leukemia = system: RPMI-8226 leukemia
RXF 393 renal = system: RXF 393 renal
SF-268 CNS = system: SF-268 CNS
SF-295 CNS = system: SF-295 CNS
SF-539 CNS = system: SF-539 CNS
SK-MEL-2 melanoma = system: SK-MEL-2 melanoma
SK-MEL-28 melanoma = system: SK-MEL-28 melanoma
SK-MEL-5 melanoma = system: SK-MEL-5 melanoma
SN12C renal = system: SN12C renal
SNB-19 CNS = system: SNB-19 CNS
SNB-75 CNS = system: SNB-75 CNS
SR leukemia = system: SR leukemia
SW-620 colon = system: SW-620 colon
T-47D breast = system: T-47D breast
TK-10 renal = system: TK-10 renal
U251 CNS = system: U251 CNS
UACC-62 melanoma = system: UACC-62 melanoma
UO-31 renal = system: UO-31 renal
A498 renal = system: A498 renal
CAKI-1 renal = system: CAKI-1 renal
EKVX NSCLC = system: EKVX NSCLC
NCI/ADR-RES ovarian = system: NCI/ADR-RES ovarian
OVCAR-5 ovarian = system: OVCAR-5 ovarian
PC-3 prostate = system: PC-3 prostate
SK-OV-3 ovarian = system: SK-OV-3 ovarian
UACC-257 melanoma = system: UACC-257 melanoma

## COc1ccccc1CNCCCCCNCCCCCCCCCCNCCCCCNCc1ccccc1OC
786-0 renal
  TGI: 42.1 µM
A549 NSCLC
  TGI: 58.8 µM
ACHN renal
  TGI: > 100 µM
BT-549 breast
  TGI: 45.5 µM
CCRF-CEM leukemia
  TGI: 32.4 µM
COLO 205 colon
  TGI: > 100 µM
DU-145 prostate
  TGI: 33.5 µM
HCC-2998 colon
  TGI: 39.2 µM
HCT-116 colon
  TGI: 24.1 µM
HCT-15 colon
  TGI: > 100 µM
HL-60(TB) leukemia
  TGI: 43.7 µM
HOP-62 NSCLC
  TGI: 31.8 µM
HOP-92 NSCLC
  TGI: > 100 µM
HS 578T breast
  TGI: 5.78 µM
HT29 colon
  TGI: > 100 µM
IGROV1 ovarian
  TGI: 45 µM
K-562 leukemia
  TGI: 31.7 µM
KM12 colon
  TGI: 58.4 µM
LOX IMVI melanoma
  TGI: 30.3 µM
M14 melanoma
  TGI: > 100 µM
MALME-3M melanoma
  TGI: 61.3 µM
MCF7 breast
  TGI: 32.7 µM
MDA-MB-231 breast
  TGI: 31.6 µM
MDA-MB-435
  TGI: > 100 µM
MDA-N
  TGI: 34.5 µM
MOLT-4 leukemia
  TGI: 26.5 µM
NCI-H226 lung
  TGI: 34.3 µM
NCI-H23 lung
  TGI: > 100 µM
NCI-H460 lung
  TGI: 26.8 µM
NCI-H522 lung
  TGI: 42.2 µM
OVCAR-3 ovarian
  TGI: > 100 µM
OVCAR-4 ovarian
  TGI: > 100 µM
OVCAR-8 ovarian
  TGI: 77.7 µM
RPMI-8226 leukemia
  TGI: > 100 µM
RXF 393 renal
  TGI: 96.3 µM
SF-268 CNS
  TGI: > 100 µM
SF-295 CNS
  TGI: > 100 µM
SF-539 CNS
  TGI: 21.2 µM
SK-MEL-2 melanoma
  TGI: 34.7 µM
SK-MEL-28 melanoma
  TGI: > 100 µM
SK-MEL-5 melanoma
  TGI: > 100 µM
SN12C renal
  TGI: 79.6 µM
SNB-19 CNS
  TGI: > 100 µM
SNB-75 CNS
  TGI: 70.3 µM
SR leukemia
  TGI: 32.2 µM
SW-620 colon
  TGI: > 100 µM
T-47D breast
  TGI: > 100 µM
TK-10 renal
  TGI: > 100 µM
U251 CNS
  TGI: 32.9 µM
UACC-62 melanoma
  TGI: > 100 µM
UO-31 renal
  TGI: > 100 µM

## CCCCNC(=O)OCCN=C1c2ccccc2C(Br)C(Br)c2ccccc21 (stereo unspecified)
786-0 renal
  TGI: 28.3 µM
A498 renal
  TGI: > 100 µM
A549 NSCLC
  TGI: > 100 µM
ACHN renal
  TGI: 62.4 µM
CAKI-1 renal
  TGI: 49.2 µM
CCRF-CEM leukemia
  TGI: > 100 µM
COLO 205 colon
  TGI: 44.7 µM
DU-145 prostate
  TGI: > 100 µM
EKVX NSCLC
  TGI: > 100 µM
HCC-2998 colon
  TGI: > 100 µM
HCT-116 colon
  TGI: 60.5 µM
HCT-15 colon
  TGI: 38.2 µM
HL-60(TB) leukemia
  TGI: 37.6 µM
HOP-62 NSCLC
  TGI: > 100 µM
HOP-92 NSCLC
  TGI: 37.1 µM
HS 578T breast
  TGI: > 100 µM
HT29 colon
  TGI: 58.3 µM
IGROV1 ovarian
  TGI: > 100 µM
K-562 leukemia
  TGI: > 100 µM
KM12 colon
  TGI: > 100 µM
LOX IMVI melanoma
  TGI: 47.2 µM
M14 melanoma
  TGI: 40.2 µM
MALME-3M melanoma
  TGI: 52.9 µM
MCF7 breast
  TGI: > 100 µM
MDA-MB-231 breast
  TGI: > 100 µM
MDA-MB-435
  TGI: 57 µM
MDA-N
  TGI: 31.7 µM
MOLT-4 leukemia
  TGI: 84.1 µM
NCI-H226 lung
  TGI: > 100 µM
NCI-H23 lung
  TGI: > 100 µM
NCI-H460 lung
  TGI: > 100 µM
NCI-H522 lung
  TGI: 73 µM
NCI/ADR-RES ovarian
  TGI: 47.2 µM
OVCAR-3 ovarian
  TGI: 46.1 µM
OVCAR-4 ovarian
  TGI: 59.6 µM
OVCAR-5 ovarian
  TGI: > 100 µM
OVCAR-8 ovarian
  TGI: 58.9 µM
PC-3 prostate
  TGI: > 100 µM
RPMI-8226 leukemia
  TGI: 62.1 µM
RXF 393 renal
  TGI: 34.8 µM
SF-268 CNS
  TGI: > 100 µM
SF-295 CNS
  TGI: > 100 µM
SF-539 CNS
  TGI: > 100 µM
SK-MEL-2 melanoma
  TGI: > 100 µM
SK-MEL-28 melanoma
  TGI: > 100 µM
SK-MEL-5 melanoma
  TGI: 50.3 µM
SK-OV-3 ovarian
  TGI: > 100 µM
SN12C renal
  TGI: > 100 µM
SNB-19 CNS
  TGI: 55.3 µM
SNB-75 CNS
  TGI: > 100 µM
SR leukemia
  TGI: > 100 µM
SW-620 colon
  TGI: > 100 µM
T-47D breast
  TGI: > 100 µM
TK-10 renal
  TGI: 52.2 µM
U251 CNS
  TGI: 62.5 µM
UACC-257 melanoma
  TGI: 76.2 µM
UACC-62 melanoma
  TGI: > 100 µM

## Cc1ccc(C(=O)N/N=C(\N=Nc2cccc(C)c2)c2ccc(N(CCC#N)CCC#N)cc2C)cc1
A498 renal
  TGI: > 100 µM
A549 NSCLC
  TGI: > 100 µM
ACHN renal
  TGI: > 100 µM
CAKI-1 renal
  TGI: > 100 µM
CCRF-CEM leukemia
  TGI: > 100 µM
COLO 205 colon
  TGI: > 100 µM
DU-145 prostate
  TGI: > 100 µM
EKVX NSCLC
  TGI: > 100 µM
HCC-2998 colon
  TGI: > 100 µM
HCT-15 colon
  TGI: > 100 µM
HL-60(TB) leukemia
  TGI: > 100 µM
HOP-62 NSCLC
  TGI: > 100 µM
HOP-92 NSCLC
  TGI: > 100 µM
HS 578T breast
  TGI: > 100 µM
HT29 colon
  TGI: > 100 µM
IGROV1 ovarian
  TGI: > 100 µM
K-562 leukemia
  TGI: > 100 µM
KM12 colon
  TGI: > 100 µM
LOX IMVI melanoma
  TGI: > 100 µM
M14 melanoma
  TGI: > 100 µM
MCF7 breast
  TGI: > 100 µM
MDA-MB-231 breast
  TGI: > 100 µM
MDA-MB-435
  TGI: > 100 µM
MDA-N
  TGI: > 100 µM
MOLT-4 leukemia
  TGI: > 100 µM
NCI-H226 lung
  TGI: > 100 µM
NCI-H23 lung
  TGI: > 100 µM
NCI-H460 lung
  TGI: > 100 µM
NCI/ADR-RES ovarian
  TGI: > 100 µM
OVCAR-3 ovarian
  TGI: > 100 µM
OVCAR-4 ovarian
  TGI: > 100 µM
OVCAR-5 ovarian
  TGI: > 100 µM
OVCAR-8 ovarian
  TGI: > 100 µM
PC-3 prostate
  TGI: > 100 µM
RPMI-8226 leukemia
  TGI: > 100 µM
RXF 393 renal
  TGI: > 100 µM
SF-268 CNS
  TGI: > 100 µM
SF-295 CNS
  TGI: > 100 µM
SF-539 CNS
  TGI: > 100 µM
SK-MEL-2 melanoma
  TGI: > 100 µM
SK-MEL-28 melanoma
  TGI: 61.4 µM
SK-MEL-5 melanoma
  TGI: > 100 µM
SK-OV-3 ovarian
  TGI: > 100 µM
SNB-19 CNS
  TGI: > 100 µM
SNB-75 CNS
  TGI: > 100 µM
SR leukemia
  TGI: > 100 µM
SW-620 colon
  TGI: > 100 µM
T-47D breast
  TGI: > 100 µM
TK-10 renal
  TGI: > 100 µM
U251 CNS
  TGI: > 100 µM
UACC-257 melanoma
  TGI: > 100 µM
UACC-62 melanoma
  TGI: > 100 µM
UO-31 renal
  TGI: > 100 µM
